This assay in a line: Binding affinity was determined in a crude membrane preparation from guinea pig brain by displacement of [3H]DPDPE from Opioid receptor delta 1. In general terms: Loss of bound radioactivity is the signal in a displacement assay; it reports binding, not function.

This passage reports Ki results from BindingDB's records for doi:10.1021/jm960573f (University of Washington, 1997).

“And” between values parts separate entries of the source, which are not always exact repeats. Equal values may be shown once.

Broadly, the Ki is the equilibrium dissociation constant of an inhibitor or competing ligand from its target. `O=C1/C(=C\c2ccccc2)C[C@@]2(O)[C@H]3Cc4ccc(O)c5c4[C@@]2(CCN3CC2CC2)[C@H]1O5` showed a Ki of 3.7 nM.

For `O=C1C(=Cc2cccc3ccccc23)C[C@@]2(O)[C@H]3Cc4ccc(O)c5c4C2(CCN3CC2CC2)[C@H]1O5` [4-cyclopropylmethyl-10,17-dihydroxy-15-[1-(1-naphthyl)-(Z)-methylidene]-(5R,13R,17S)-12-oxa-4-azapentacyclo[9.6.1.01,13.05,17.07,18]octadeca-7(18),8,10-trien-14-one], the inhibition constant Ki was 4.6 nM and 0.7 nM. Regarding `O=C1C(=Cc2ccc3ccccc3c2)C[C@@]2(O)[C@H]3Cc4ccc(O)c5c4C2(CCN3CC2CC2)[C@H]1O5` [4-cyclopropylmethyl-10,17-dihydroxy-15-[1-(2-naphthyl)-(E)-methylidene]-(5R,13R,17S)-12-oxa-4-azapentacyclo[9.6.1.01,13.05,17.07,18]octadeca-7(18),8,10-trien-14-one], the Ki worked out at 39 nM. Take `O=C1/C(=C/c2ccccc2)C[C@@]2(O)[C@H]3Cc4ccc(O)c5c4[C@@]2(CCN3CC2CC2)[C@H]1O5` [7-Benzylidenenaltrexone]: the inhibitory constant (Ki) was determined as 6.2 nM. Consider `O=C1C(=Cc2c3ccccc3cc3ccccc23)C[C@@]2(O)[C@H]3Cc4ccc(O)c5c4C2(CCN3CC2CC2)[C@H]1O5`, for which the Ki was 2.4 nM and 17 nM.

Turning to `O=C1C(=Cc2ccc(-c3ccccc3)cc2)C[C@@]2(O)[C@H]3Cc4ccc(O)c5c4C2(CCN3CC2CC2)[C@H]1O5`, the inhibition constant (Ki) is 75 nM and 47 nM.
